Data on six compounds can be found in PMC12067315 (European journal of medicinal chemistry, 2022).

The target of one experiment is T1, α2A-AR (Homo sapiens, UniProt P08913).
T1 sequence (P08913 1-465): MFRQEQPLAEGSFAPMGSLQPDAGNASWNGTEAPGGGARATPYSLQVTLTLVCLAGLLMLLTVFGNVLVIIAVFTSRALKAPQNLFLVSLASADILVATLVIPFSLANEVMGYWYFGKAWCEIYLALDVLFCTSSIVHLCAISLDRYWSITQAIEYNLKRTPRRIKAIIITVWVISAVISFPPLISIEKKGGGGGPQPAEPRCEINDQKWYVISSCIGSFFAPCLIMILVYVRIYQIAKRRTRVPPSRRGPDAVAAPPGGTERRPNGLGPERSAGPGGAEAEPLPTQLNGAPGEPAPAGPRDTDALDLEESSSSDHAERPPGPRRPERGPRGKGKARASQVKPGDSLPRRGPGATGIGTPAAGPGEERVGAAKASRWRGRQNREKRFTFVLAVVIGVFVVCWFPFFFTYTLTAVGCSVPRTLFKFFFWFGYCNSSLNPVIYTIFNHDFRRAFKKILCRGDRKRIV
It is filed as binding.

Experiment [1] concerns α2C. The conditions noted are these: read-out: α2C (nM), literature Kb; literature Kb values; cited from earlier work.
A further experiment has as its target T2, α2C-AR (Homo sapiens, UniProt P18825).
T2 sequence (P18825 1-462): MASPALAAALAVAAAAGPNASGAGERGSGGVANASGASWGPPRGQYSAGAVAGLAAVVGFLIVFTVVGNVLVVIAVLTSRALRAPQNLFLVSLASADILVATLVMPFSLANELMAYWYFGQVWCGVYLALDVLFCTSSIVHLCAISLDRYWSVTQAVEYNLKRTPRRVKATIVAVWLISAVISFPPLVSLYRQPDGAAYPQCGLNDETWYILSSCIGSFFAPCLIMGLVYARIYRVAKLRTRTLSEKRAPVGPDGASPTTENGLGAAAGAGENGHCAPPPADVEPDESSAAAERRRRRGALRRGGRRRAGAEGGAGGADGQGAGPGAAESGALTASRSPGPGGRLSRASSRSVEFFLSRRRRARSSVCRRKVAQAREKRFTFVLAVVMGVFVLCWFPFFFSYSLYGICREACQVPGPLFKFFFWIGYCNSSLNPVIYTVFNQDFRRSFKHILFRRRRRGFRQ
In kind it is binding. The conditions noted are these: for Subtype Selectivity (α2A/α2C): ratio between Ki for α2A vs. α2C.

Experiment [2] deals with α2A. Conditions: read-out: α2A (nM), literature Kb; literature Kb values; cited from earlier work.
The target in experiment [3] is α2C. Conditions: read-out: α2C (nM), literature Kd; literature Kd values; cited from earlier work.
Experiment [4] concerns the target α2A. The conditions noted are these: read-out: α2A (nM), literature Kd; literature Kd values; cited from earlier work.
Experiment [5] has as its target α2A. Conditions: read-out: α2A (nM), literature Ki; literature Ki values; cited from earlier work.
The target of experiment [6] is α2C. Conditions: read-out: α2C (nM), literature Ki; literature Ki values; cited from earlier work.

Molecules are shown by their SMILES. Like-named read-outs stand apart in the source and are kept apart here.

For the compound `COCc1scnc1N1CCN(C[C@H]2COc3ccccc3O2)CC1` [Compound 1, (S)-4-(4-((2,3-dihydrobenzo[b][1,4]dioxin-2-yl)methyl)piperazin-1-yl)-5-(methoxymethyl)thiazole], the inhibition constant Ki on α2A-AR worked out at 1.06 ± 0.52 nM; on α2C-AR, 0.25 ± 0.01 nM. Moreover, the Kb was less than 0.1 nM with α2C [1] and 88 nM in the experiment with α2A [2]. Also, at α2C-AR, the “Subtype Selectivity (α2A/α2C)” value came to 4.24.

Turning to `COc1cccc(-n2nc(C)cc2N2CCN(C[C@H]3COc4ccccc4O3)CC2)n1` [Compound 4, (S)-1-((2,3-dihydrobenzo[b][1,4]dioxin-2-yl)methyl)-4-(1-(6-methoxypyridin-2-yl)-3-methyl-1H-pyrazol-5-yl)piperazine], the results for the Ki on α2A-AR and on α2C-AR were 2.77 ± 0.58 nM and 0.4 ± 0.07 nM, respectively. Also, the Kb in the experiment with α2C [1] was 0.29 nM; in the experiment on α2A [2], 82 nM. For the same compound, the “Subtype Selectivity (α2A/α2C)” value at α2C-AR stood at 6.93.

As to `CCS(=O)(=O)N1CCC[C@@H]2CN3CCc4cc(OC)ccc4[C@@H]3C[C@@H]21` [RS79948, reference compound], the inhibition constant (Ki) at α2A-AR (read-out: α2A (Ki), HEK293 membranes, 1 nM [3H]RX821002, Ki ± standard deviation) was found to be 0.16 ± 0.12 nM; on α2C-AR (read-out: α2C (Ki), HEK293 membranes, 1 nM [3H]RX821002, Ki ± standard deviation), 0.29 ± 0.08 nM. The “Subtype Selectivity (α2A/α2C)” value on α2C-AR is listed as 0.55. The figures for the Kd at α2C [3] and on α2A [4] were 0.77 nM and 0.6 nM, respectively.

As to `COCc1cccnc1N1CCN(C[C@H]2COc3ccccc3O2)CC1` [ORM-13070, (S)-1-((2,3-dihydrobenzo[b][1,4]dioxin-2-yl)methyl)-4-(3-(methoxymethyl)pyridin-2-yl)piperazine, reference compound], the Ki at α2A-AR was 2.8 ± 0.2 nM; at α2A [5], 109 nM; at α2C-AR, 0.25 ± 0.09 nM; at α2C [6] it was 3.8 nM. The “Subtype Selectivity (α2A/α2C)” value on α2C-AR was 11.2.

On to `COc1ccccc1C1=CC(=O)N([C@H]2CCCN(C[C@H]3COc4ccccc4O3)C2)C1` [Compound 3, 1-((S)-1-(((S)-2,3-dihydrobenzo[b][1,4]dioxin-2-yl)methyl)piperidin-3-yl)-4-(2-methoxyphenyl)-1,5-dihydro-2H-pyrrol-2-one], for which, on α2A-AR, the Ki stood at 458 ± 26 nM. Moreover, the Kb with α2C [1] is less than 0.001 nM; in the experiment with α2A [2], more than 449 nM. For the same compound, the “Subtype Selectivity (α2A/α2C)” value on α2C-AR is reported as 751,000.

For the compound `COCc1c(C)nn(C)c1N1CCN(C[C@H]2COc3ccccc3O2)CC1` [Compound 2, (S)-1-((2,3-dihydrobenzo[b][1,4]dioxin-2-yl)methyl)-4-(4-(methoxymethyl)-1,3-dimethyl-1H-pyrazol-5-yl)-piperazine], the inhibition constant Ki on α2A-AR is 12.3 ± 1.2 nM; at α2C-AR, 0.74 ± 0.1 nM. Besides, the Kb in the experiment with α2C [1] was 1.62 nM; with α2A [2], 306 nM. On α2C-AR, the “Subtype Selectivity (α2A/α2C)” value was determined as 16.6.
